Tested on: interleukin (IL)-6
Test: Human immune cell line THP-1 in vitro assay: IL-6 in supernatant of LPS-treated differentiated THP1-XBlue cells (ELISA)
Format: cell-based
Conditions: differentiated THP1-XBlue cells co-treated with E. coli LPS and composition, 24 hours; percentage to LPS-treated cells = 100%; three repeats
Method: Human Immune Cell Line THP-1 In Vitro Assay The following procedure was used to determine the anti-inflammation efficacy: THP1-XBlue™ (Cat No. thpx-sp, InvivoGen, San Diego, CA) cells were cultured as suspension in RPMI 1640 medium supplemented with 10% fetal bovine serum (FBS), penicillin (10 U/mL)-streptomycin (10 μg/mL) (Cat No. 15140122, Invitrogen, Carlsbad, CA). Cells were differentiated in 24-well plates at the density of 5×10^5 cells/well with 100 nM phorbol-12-myristate-13-acetate for 72 hours. Cells were then co-treated with pure E. coli lipopolysaccharides (LPS, Cat No. L2630, Sigma-Aldrich) and various compositions in Table 1. […] Expression of IL-6 was calculated as the percentage to LPS-treated cells which was designated as 100%. P value was analysed by Student's t-test comparing combination groups and individual compound groups (expression of IL-6, three repeats for each group).

With `CCCCCCC(O)CCCCCCCCCCC(=O)O` (stereo not shown) [B, 12-hydroxystearic acid] the “Expression of IL-6 (%)” value was 84.4%.

Source: US12673019B2, “Skin care composition” (Conopco, Inc., priority 2021, dated 2026)
